In ChEMBL document CHEMBL5291721, “A preclinical secondary pharmacology resource illuminates target-adverse drug reaction associations of marketed drugs” (Nat Commun, 2023):

Tests used:
[1] = biological target: T1, Alpha-2A adrenergic receptor (Homo sapiens, UniProt P08913); assay type: functional, cell-based
T1 sequence (P08913 whole entry): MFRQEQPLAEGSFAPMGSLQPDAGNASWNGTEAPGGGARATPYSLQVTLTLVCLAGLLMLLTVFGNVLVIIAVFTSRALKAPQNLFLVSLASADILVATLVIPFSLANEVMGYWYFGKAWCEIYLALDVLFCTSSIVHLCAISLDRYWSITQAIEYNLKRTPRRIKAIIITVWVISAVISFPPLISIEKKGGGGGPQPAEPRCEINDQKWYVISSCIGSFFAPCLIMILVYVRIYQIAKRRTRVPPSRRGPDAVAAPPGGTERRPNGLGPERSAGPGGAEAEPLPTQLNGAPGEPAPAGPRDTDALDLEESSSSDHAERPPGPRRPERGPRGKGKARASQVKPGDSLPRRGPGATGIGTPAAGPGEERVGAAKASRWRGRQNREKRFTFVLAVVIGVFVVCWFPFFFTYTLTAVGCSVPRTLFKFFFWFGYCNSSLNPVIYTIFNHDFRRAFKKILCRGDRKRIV

[2] = biological target: T2, B2 bradykinin receptor (Homo sapiens, UniProt P30411)
T2 sequence (P30411 whole entry): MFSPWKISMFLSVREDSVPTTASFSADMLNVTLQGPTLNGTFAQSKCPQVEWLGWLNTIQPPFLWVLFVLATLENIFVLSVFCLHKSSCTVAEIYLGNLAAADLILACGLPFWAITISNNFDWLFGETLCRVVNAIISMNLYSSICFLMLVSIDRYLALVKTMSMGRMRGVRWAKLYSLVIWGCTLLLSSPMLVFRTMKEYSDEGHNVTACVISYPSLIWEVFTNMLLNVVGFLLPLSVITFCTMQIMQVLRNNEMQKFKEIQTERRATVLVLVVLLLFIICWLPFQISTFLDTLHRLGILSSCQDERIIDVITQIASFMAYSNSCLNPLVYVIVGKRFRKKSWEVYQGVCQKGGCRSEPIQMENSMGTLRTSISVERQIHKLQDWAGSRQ

[3] = biological target: Muscarinic acetylcholine receptor M3 (Homo sapiens, UniProt P20309)
Chain of Muscarinic acetylcholine receptor M3 (P20309 whole entry): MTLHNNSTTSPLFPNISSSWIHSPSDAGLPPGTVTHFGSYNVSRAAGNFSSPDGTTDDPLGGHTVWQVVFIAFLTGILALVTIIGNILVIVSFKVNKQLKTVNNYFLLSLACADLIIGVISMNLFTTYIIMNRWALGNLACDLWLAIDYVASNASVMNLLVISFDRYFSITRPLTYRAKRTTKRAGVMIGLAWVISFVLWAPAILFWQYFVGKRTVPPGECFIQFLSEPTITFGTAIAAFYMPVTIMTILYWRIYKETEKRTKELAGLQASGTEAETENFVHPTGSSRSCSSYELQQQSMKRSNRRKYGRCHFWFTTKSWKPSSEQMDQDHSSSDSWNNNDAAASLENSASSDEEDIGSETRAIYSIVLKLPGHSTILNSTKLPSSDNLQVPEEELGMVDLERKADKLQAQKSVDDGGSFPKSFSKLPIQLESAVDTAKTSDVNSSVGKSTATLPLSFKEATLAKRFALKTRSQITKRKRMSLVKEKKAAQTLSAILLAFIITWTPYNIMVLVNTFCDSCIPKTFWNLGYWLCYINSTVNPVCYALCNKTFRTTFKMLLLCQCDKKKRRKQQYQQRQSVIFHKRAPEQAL

[4] = biological target: Cannabinoid receptor 1 (Homo sapiens, UniProt P21554); assay type: functional, cell-based
Chain of Cannabinoid receptor 1 (P21554 whole entry): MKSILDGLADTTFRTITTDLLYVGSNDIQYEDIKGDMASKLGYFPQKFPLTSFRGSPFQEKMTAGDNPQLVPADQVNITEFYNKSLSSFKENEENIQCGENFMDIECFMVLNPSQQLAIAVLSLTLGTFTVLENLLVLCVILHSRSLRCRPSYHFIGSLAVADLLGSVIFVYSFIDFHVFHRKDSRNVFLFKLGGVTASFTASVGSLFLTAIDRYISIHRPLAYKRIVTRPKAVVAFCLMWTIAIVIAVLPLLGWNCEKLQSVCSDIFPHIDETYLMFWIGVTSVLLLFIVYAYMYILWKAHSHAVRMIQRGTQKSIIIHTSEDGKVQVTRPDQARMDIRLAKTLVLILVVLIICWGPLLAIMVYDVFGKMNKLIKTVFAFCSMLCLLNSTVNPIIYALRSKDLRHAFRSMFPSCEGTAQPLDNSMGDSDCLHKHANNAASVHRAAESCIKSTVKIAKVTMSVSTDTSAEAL

[5] = biological target: 5-hydroxytryptamine receptor 2A (Homo sapiens, UniProt P28223); assay type: functional, cell-based
Chain of 5-hydroxytryptamine receptor 2A (P28223 whole entry): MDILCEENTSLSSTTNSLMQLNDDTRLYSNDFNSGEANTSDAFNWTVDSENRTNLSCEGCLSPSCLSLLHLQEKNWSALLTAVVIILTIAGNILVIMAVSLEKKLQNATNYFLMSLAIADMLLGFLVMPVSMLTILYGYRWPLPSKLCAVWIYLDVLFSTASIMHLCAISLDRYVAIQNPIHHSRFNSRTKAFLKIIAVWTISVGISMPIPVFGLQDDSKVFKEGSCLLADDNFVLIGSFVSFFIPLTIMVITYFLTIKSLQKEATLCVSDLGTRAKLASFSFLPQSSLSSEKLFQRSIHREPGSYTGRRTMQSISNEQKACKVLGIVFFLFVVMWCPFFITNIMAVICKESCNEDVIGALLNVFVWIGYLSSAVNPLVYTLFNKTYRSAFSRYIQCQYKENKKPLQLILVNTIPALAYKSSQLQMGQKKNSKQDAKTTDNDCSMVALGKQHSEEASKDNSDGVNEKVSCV

[6] = biological target: T3, Neuropeptide Y receptor type 1 (Homo sapiens, UniProt P25929)
T3 sequence (P25929 whole entry): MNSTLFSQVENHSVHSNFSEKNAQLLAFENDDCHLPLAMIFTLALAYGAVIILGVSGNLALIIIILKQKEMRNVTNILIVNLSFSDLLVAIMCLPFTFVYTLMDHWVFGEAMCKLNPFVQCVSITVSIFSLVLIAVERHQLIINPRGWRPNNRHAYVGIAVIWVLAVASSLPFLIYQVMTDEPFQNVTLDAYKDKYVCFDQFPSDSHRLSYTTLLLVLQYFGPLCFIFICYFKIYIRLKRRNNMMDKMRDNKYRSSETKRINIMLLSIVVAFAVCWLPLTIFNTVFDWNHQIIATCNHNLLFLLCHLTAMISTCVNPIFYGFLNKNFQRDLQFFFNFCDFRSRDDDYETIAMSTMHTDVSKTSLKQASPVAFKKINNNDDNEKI

[7] = biological target: T4, Prostaglandin G/H synthase 1 (Rattus norvegicus, UniProt Q63921); assay type: functional
T4 sequence (Q63921 whole entry): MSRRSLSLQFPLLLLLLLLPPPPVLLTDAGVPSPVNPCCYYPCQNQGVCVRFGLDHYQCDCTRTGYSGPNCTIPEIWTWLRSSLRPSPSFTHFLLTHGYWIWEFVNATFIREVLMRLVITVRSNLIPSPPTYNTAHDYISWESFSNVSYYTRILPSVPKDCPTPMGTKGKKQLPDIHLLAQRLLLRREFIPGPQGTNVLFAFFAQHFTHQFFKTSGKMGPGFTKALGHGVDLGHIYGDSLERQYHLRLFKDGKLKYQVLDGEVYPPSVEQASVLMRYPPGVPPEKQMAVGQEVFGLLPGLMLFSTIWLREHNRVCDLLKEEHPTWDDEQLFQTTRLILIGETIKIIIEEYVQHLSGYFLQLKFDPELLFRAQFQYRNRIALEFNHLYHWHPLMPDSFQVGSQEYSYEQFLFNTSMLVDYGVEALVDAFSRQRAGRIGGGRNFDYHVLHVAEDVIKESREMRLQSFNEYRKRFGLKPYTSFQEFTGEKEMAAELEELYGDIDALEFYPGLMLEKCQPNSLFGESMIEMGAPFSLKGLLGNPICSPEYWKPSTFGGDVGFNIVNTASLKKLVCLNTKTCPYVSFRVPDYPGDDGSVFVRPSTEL

[8] = biological target: T5, Equilibrative nucleoside transporter 1 (Homo sapiens, UniProt Q99808)
T5 sequence (Q99808 whole entry): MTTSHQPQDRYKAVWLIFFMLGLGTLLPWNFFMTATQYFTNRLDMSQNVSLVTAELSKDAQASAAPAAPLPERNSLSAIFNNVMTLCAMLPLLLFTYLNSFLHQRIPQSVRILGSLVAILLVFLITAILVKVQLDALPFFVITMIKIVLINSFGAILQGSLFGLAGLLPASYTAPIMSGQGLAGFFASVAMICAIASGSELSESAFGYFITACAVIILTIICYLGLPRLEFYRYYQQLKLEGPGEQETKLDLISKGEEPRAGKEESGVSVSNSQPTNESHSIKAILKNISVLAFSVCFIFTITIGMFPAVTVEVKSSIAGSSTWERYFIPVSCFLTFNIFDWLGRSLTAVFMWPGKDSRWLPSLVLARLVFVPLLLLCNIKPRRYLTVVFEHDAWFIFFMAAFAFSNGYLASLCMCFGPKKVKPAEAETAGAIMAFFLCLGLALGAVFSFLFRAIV

[9] = biological target: T6, Thromboxane A2 receptor (Homo sapiens, UniProt P21731)
T6 sequence (P21731 whole entry): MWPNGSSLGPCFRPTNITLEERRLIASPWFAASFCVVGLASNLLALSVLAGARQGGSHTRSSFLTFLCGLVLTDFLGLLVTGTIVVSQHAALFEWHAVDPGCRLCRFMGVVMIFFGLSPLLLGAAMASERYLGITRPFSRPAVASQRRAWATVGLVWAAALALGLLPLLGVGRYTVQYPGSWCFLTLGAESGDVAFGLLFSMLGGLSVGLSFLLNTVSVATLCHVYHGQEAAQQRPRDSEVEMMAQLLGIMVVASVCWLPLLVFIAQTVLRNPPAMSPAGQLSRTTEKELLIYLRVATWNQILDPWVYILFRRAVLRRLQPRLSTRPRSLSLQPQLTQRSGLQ

[10] = biological target: Sodium-dependent dopamine transporter (Homo sapiens, UniProt Q01959)
Chain of Sodium-dependent dopamine transporter (Q01959 whole entry): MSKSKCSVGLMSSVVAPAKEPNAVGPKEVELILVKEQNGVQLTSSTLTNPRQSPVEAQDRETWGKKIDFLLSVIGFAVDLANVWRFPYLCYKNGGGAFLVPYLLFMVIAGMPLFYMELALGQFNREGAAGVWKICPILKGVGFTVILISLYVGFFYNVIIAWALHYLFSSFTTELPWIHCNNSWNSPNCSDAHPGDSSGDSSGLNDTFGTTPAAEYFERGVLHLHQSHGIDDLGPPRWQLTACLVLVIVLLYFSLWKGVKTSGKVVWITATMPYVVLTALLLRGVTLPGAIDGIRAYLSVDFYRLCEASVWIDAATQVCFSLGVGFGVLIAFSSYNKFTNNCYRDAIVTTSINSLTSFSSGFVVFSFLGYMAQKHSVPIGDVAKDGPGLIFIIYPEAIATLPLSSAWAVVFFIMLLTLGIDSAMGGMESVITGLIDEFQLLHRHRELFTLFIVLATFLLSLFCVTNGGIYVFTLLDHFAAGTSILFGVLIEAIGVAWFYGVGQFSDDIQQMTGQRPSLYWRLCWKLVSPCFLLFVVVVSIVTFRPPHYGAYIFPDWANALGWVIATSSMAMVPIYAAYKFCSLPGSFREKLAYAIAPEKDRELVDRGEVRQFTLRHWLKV

Measured: AC50
Note: assay procedure not described here.

CC(=O)Nc1c(I)c(C(=O)N[C@H]2C(O)O[C@H](CO)[C@@H](O)[C@@H]2O)c(I)c(N(C)C(C)=O)c1I (stereo not given in full) [METRIZAMIDE]
> 10 µM: [1] | [2] | [5] | [6] | [7] | [8] | [9] | [10]
> 30 µM: [3] | [4]

CN(c1nccc(=O)[nH]1)C1CCN(c2nc3ccccc3n2Cc2ccc(F)cc2)CC1 [MIZOLASTINE]
> 30 µM: [2] | [3] | [4] | [5] | [6] | [7] | [8] | [9] | [10]
23 µM: [1]

CC(CCc1ccccc1)NC(C)C(O)c1ccc(O)cc1 (stereo not given) [NYLIDRIN]
19 µM: [1]
> 30 µM: [2] | [4] | [5] | [6] | [7] | [8] | [9]
> 10 µM: [3]
1.44 µM: [10]

O=C1Nc2ccc(Cl)cc2C(c2ccccc2)=NC1O (stereo not given) [OXAZEPAM]
> 10 µM: [1] | [3] | [10]
> 30 µM: [2] | [4] | [5] | [6] | [7] | [8] | [9]

Cc1ccc(=O)n(-c2ccccc2)c1 [PIRFENIDONE]
> 30 µM: [1] | [2] | [3] | [4] | [5] | [6] | [7] | [8] | [9] | [10]

CCCOC(C(=O)OC1CCN(C)CC1)(c1ccccc1)c1ccccc1 [PROPIVERINE]
0.83 µM: [3]
26 µM: [5]
> 30 µM: [1] | [2] | [4] | [6] | [7] | [8] | [9]
16 µM: [10]

C=CC(N)CCC(=O)O (stereo not given) [VIGABATRIN]
> 30 µM: [3] | [4] | [8]
> 10 µM: [1] | [2] | [5] | [6] | [7] | [9]
19.5 µM: [10]
